± gives the expanded uncertainty stated by the source.
Experiment: mn = molality of the nth substance listed, in mol/kg
Settings: 100 kPa, Liquid; for speed of sound: Frequency=3 MHz, Single path-length method; for mass density: Vibrating tube method

C[N+](C)(C)C[C@H](O)CC(=O)[O-] [(R)-3-hydroxy-4-(trimethylammonio)butanoate] + O
Settings | mass density [kg/m3] | speed of sound [m/s]
293.15 K, m1 = 0.0937 | 1001.09 ± 0.32 | 1492.4 ± 2
293.15 K, m1 = 0.1233 | 1001.98 ± 0.34 | 1495.2 ± 2.1
293.15 K, m1 = 0.1554 | 1002.94 ± 0.35 | 1498.3 ± 2.1
293.15 K, m1 = 0.1924 | 1004.04 ± 0.38 | 1501.8 ± 2.1
293.15 K, m1 = 0.2249 | 1004.99 ± 0.4 | 1504.9 ± 2.2
293.15 K, m1 = 0.2574 | 1005.94 ± 0.43 | 1507.9 ± 2.2
293.15 K, m1 = 0.276 | 1006.48 ± 0.44 | 1509.7 ± 2.3
293.15 K, m1 = 0.3064 | 1007.35 ± 0.46 | 1512.5 ± 2.3
298.15 K, m1 = 0.0497 | 998.57 ± 0.31 | 1502.3 ± 2
298.15 K, m1 = 0.0994 | 1000.06 ± 0.32 | 1506.9 ± 2
298.15 K, m1 = 0.1214 | 1000.71 ± 0.33 | 1508.9 ± 2.1
298.15 K, m1 = 0.1509 | 1001.58 ± 0.35 | 1511.6 ± 2.1
298.15 K, m1 = 0.2007 | 1003.03 ± 0.38 | 1516.1 ± 2.1
298.15 K, m1 = 0.2203 | 1003.6 ± 0.4 | 1517.8 ± 2.2
298.15 K, m1 = 0.2572 | 1004.66 ± 0.42 | 1521.2 ± 2.2
298.15 K, m1 = 0.3012 | 1005.91 ± 0.44 | 1525.1 ± 2.2
303.15 K, m1 = 0.0477 | 997.1 ± 0.31 | 1514.3 ± 2
303.15 K, m1 = 0.1029 | 998.75 ± 0.33 | 1519.2 ± 2
303.15 K, m1 = 0.1227 | 999.33 ± 0.34 | 1521 ± 2.1
303.15 K, m1 = 0.1531 | 1000.21 ± 0.35 | 1523.6 ± 2.1
303.15 K, m1 = 0.2046 | 1001.71 ± 0.41 | 1528.1 ± 2.3
303.15 K, m1 = 0.2174 | 1002.07 ± 0.39 | 1529.2 ± 2.2
303.15 K, m1 = 0.255 | 1003.14 ± 0.42 | 1532.4 ± 2.2
303.15 K, m1 = 0.3041 | 1004.51 ± 0.44 | 1536.7 ± 2.2
308.15 K, m1 = 0.0512 | 995.58 ± 0.31 | 1525.2 ± 2
308.15 K, m1 = 0.0938 | 996.84 ± 0.32 | 1528.8 ± 2
308.15 K, m1 = 0.1229 | 997.69 ± 0.33 | 1531.2 ± 2
308.15 K, m1 = 0.1447 | 998.32 ± 0.35 | 1533.1 ± 2.1
308.15 K, m1 = 0.1952 | 999.78 ± 0.37 | 1537.3 ± 2.1
308.15 K, m1 = 0.2238 | 1000.59 ± 0.39 | 1539.7 ± 2.1
308.15 K, m1 = 0.2282 | 1000.71 ± 0.39 | 1540.1 ± 2.1
308.15 K, m1 = 0.304 | 1002.84 ± 0.45 | 1546.4 ± 2.2
313.15 K, m1 = 0.0519 | 993.75 ± 0.31 | 1534.1 ± 2
313.15 K, m1 = 0.1012 | 995.21 ± 0.33 | 1538.2 ± 2
313.15 K, m1 = 0.1204 | 995.77 ± 0.33 | 1539.7 ± 2
313.15 K, m1 = 0.1428 | 996.42 ± 0.34 | 1541.5 ± 2.1
313.15 K, m1 = 0.1922 | 997.84 ± 0.37 | 1545.5 ± 2.1
313.15 K, m1 = 0.2107 | 998.36 ± 0.38 | 1547 ± 2.1
313.15 K, m1 = 0.2436 | 999.29 ± 0.41 | 1549.7 ± 2.2
313.15 K, m1 = 0.3053 | 1001 ± 0.45 | 1554.7 ± 2.2

O=C[C@H](O)[C@@H](O)[C@H](O)[C@H](O)CO [D-glucose] + O
298.15 K
Settings | mass density [kg/m3] | speed of sound [m/s]
m1 = 0.153 | – | 1507.3 ± 2.1
m1 = 1.13 | 1064.98 ± 2.7 | 1565.3 ± 2.1

[Cl-].[Na+] [sodium chloride] + O
298.15 K
Settings | mass density [kg/m3] | speed of sound [m/s]
m1 = 0.151 | 1003.43 ± 0.31 | 1507.5 ± 2
m1 = 1.021 | 1037.99 ± 0.52 | 1560.5 ± 2

C[N+](C)(C)[O-] [trimethylamine oxide] + O
m1 = 1.08
Settings | mass density [kg/m3] | speed of sound [m/s]
293.15 K | 1000.9 ± 0.38 | 1564.8 ± 2.3
298.15 K | 999.7 ± 0.38 | 1575.7 ± 2.3
303.15 K | 998.26 ± 0.38 | 1584.2 ± 2.3
308.15 K | 996.53 ± 0.38 | 1589.4 ± 2.3
313.15 K | 994.81 ± 0.38 | 1595.5 ± 2.3

O [water] + C[N+](C)(C)C[C@H](O)CC(=O)[O-]
m2 = 0
Settings | speed of sound [m/s]
298.15 K | 1497.7 ± 2
308.15 K | 1520.7 ± 2

O [water] + C[N+](C)(C)[O-]
m2 = 0
Settings | speed of sound [m/s]
298.15 K | 1497.7 ± 2
308.15 K | 1520.7 ± 2

O [water] + O=C[C@H](O)[C@@H](O)[C@H](O)[C@H](O)CO
Settings | speed of sound [m/s]
298.15 K, m2 = 0 | 1497.7 ± 2

O [water] + [Cl-].[Na+]
Settings | speed of sound [m/s]
298.15 K, m2 = 0 | 1497.7 ± 2
